Assay results as given in patent US20210349082A1, “ANALYSIS INSTRUMENT” (First Light Diagnostics, Inc., priority 2018, published 2021).
Where two headings read alike, the source gives them in different places.

Legend:
[1] = tested on: K. pneumonaie strain in clinical urine sample BIUR0084; assay: Automated MultiPath AST cartridge on clinical urine sample; assay type: cell-based; details: clinical urine sample BIUR0084 (K. pneumoniae); 2 antibiotic concentrations; 4 h growth; fold growth value of 2
[2] = tested on: P. aeruginosa; details: cited from earlier work

Row | Compound | sensitive/resistant call by MulitPath [1] | previously determined antibiotic resistance ([2]; P. aeruginosa ATCC 27853) | previously determined antibiotic resistance ([2]; P. aeruginosa CDC0105) | previously determined antibiotic resistance ([2]; P. aeruginosa CDC0111) | previously determined antibiotic resistance ([2]; P. aeruginosa CDC0232) | previously determined antibiotic resistance ([2]; P. aeruginosa CDC0242) | previously determined antibiotic resistance ([2]; P. aeruginosa CDC0247) | previously determined antibiotic resistance ([2]; P. aeruginosa CDC0251) | previously determined antibiotic resistance ([2]; P. aeruginosa CDC0253) | previously determined antibiotic resistance ([2]; P. aeruginosa CDC0259) | previously determined antibiotic resistance ([2]; P. aeruginosa CDC0261) | previously determined antibiotic resistance ([2]; P. aeruginosa CDC0262)
1 | Cc1nnc(SCC2=C(C(=O)O)N3C(=O)[C@@H](NC(=O)Cn4cnnn4)[C@H]3SC2)s1 [Cefazolin] | resistant | – | – | – | – | – | – | – | – | – | – | –
2 | Trimethoprim/Sulfamethoxazole | resistant | Intrinsically | Intrinsically | Intrinsically | Intrinsically | Intrinsically | Intrinsically | Intrinsically | Intrinsically | Intrinsically | Intrinsically | Intrinsically
